Assay results reported in patent EP0097446B1, “Penicillin derivatives and process for preparation of the same” (TAIHO PHARMACEUTICAL COMPANY LIMITED, priority 1982, dated 1984).
pIC50: −log10 of the molar value. ≈ marks a conversion by molar mass, not a printed value. Where two headings read alike, the source gives them in different places.

Columns and labels:
E.coli TH—397 = assay: MIC by micro-broth dilution method; type: cell-based; conditions: Escherichia coli, 20 h, Table 2, read-out: MIC, Ampicillin (singly used)
Method: (§1) In the method, the bacteria cultivated in Mueller Hinton Broth (product of DIFCO) and diluted to 10' CFU/ml were inoculated into the same medium containing ampicillin and the present compound in a specific concentration, and incubated at 37°C for 20 hours. […] The bacteria as used in the test were those capable of producing β-lactamase, among which the bacteria marked ^* in the table are those collected from the living body of human hosts and the others are a stock culture.

S.aureus ATCC 90124 = assay: MIC by micro-broth dilution method; type: cell-based; conditions: Staphylococcus aureus, ATCC90124, 20 h
Method: as §1, with “The MIC of ampicillin as combined with the present compound (10 µg/ml) was measured against the same bacteria. In” for “In”
(§2) The same test as above was carried out to determine the antibacterial activity of the sodium 2β-(4,5-dimethoxycarbonyl-1,2,3-triazole-1-yl)methyl-2a-methylpenam-3a-carboxylate-1,1-dioxide (Compound 26) obtained in Example 24.

E.coli TH—34 = assay: MIC by micro-broth dilution method; type: cell-based; conditions: Escherichia coli, 20 h, Table 3, inoculate 10^7 CFU/ml, singly used
Method: as §1, with “The MIC of ampicillin as combined with the present compound (10 µg/ml) was measured against the same bacteria. In” for “In”
as §2

E.coli TH—13 = assay: MIC by micro-broth dilution method; type: cell-based; conditions: Escherichia coli, 20 h
Method: as §1, with “The MIC of ampicillin as combined with the present compound (10 µg/ml) was measured against the same bacteria. In” for “In”
as §2

S.aureus S—54 = assay: MIC by micro-broth dilution method; type: cell-based; conditions: Staphylococcus aureus
Method: as §1, with “The MIC of ampicillin as combined with the present compound (10 µg/ml) was measured against the same bacteria. In” for “In”
as §2

S.marcescens TH—05 = assay: MIC by micro-broth dilution method; type: cell-based; conditions: Serratia marcescens, 20 h
Method: as §1, with “The MIC of ampicillin as combined with the present compound (10 µg/ml) was measured against the same bacteria. In” for “In”
as §2

P.mirabilis 121—1 = assay: MIC by micro-broth dilution method; type: cell-based; conditions: Proteus mirabilis, 20 h, Table 3, inoculate 10^7 CFU/ml, singly used
Method: as §1, with “The MIC of ampicillin as combined with the present compound (10 µg/ml) was measured against the same bacteria. In” for “In”
as §2

P.vulgaris IID OX—19 = assay: MIC by micro-broth dilution method; type: cell-based; conditions: Proteus vulgaris, 20 h
Method: as §1, with “The MIC of ampicillin as combined with the present compound (10 µg/ml) was measured against the same bacteria. In” for “In”
as §2

P.Mirabilis 121 = assay: MIC by micro-broth dilution method; type: cell-based; conditions: Proteus mirabilis, 20 h, Table 2, read-out: MIC, Ampicillin (singly used)
Method: as §1, with “The MIC of ampicillin as combined with the present compound (10 µg/ml) was measured against the same bacteria. In” for “In”

[1] = tested on: 30 strains of coliform bacilli collected from the living body of humans; assay: MIC50 and MIC70 against 30 clinical strains, antibiotics alone and combined with present compound; type: cell-based; conditions: for MIC50: Homo sapiens, 20 h, concentration inhibiting growth of 50% of 30 strains; for MIC70, Present compound as combined with ampicillin: MIC of ampicillin with present compound (10 pg/ml [sic]); for MIC70, Present compound as combined with ampicillin / MIC70, Present compound as combined with cephalexin / MIC70, Present compound as combined with mecillinam / MIC70, Present compound as combined with piperacillin: 70% of 30 strains; for MIC70, Present compound as combined with cephalexin: MIC of cephalexin with present compound (10 pg/ml [sic]); for MIC70, Present compound as combined with mecillinam: MIC of mecillinam with present compound (10 pg/ml [sic]); for MIC70, Present compound as combined with piperacillin: MIC of piperacillin with present compound (10 pg/ml [sic])
Method: as §1, with “The MIC of ampicillin as combined with the present compound (10 µg/ml) was measured against the same bacteria. In” for “In”
The compounds of the present invention, ampicillin, mecillinam, piperacillin and cephalexin, each singly used, were also tested for minimal inhibitory concentration against 30 strains of coliform bacilli collected from the living body of humans. The MIC of each antibiotic as combined with the present compound (10 pg/ml) was likewise measured. Table 4 to 7 indicate the results in which MlC50 and MlC70 indicate the minimal inhibitory concentration for inhibiting the growth of 50% and 70% respectively of the strains. The MICs of the present compounds singly used were all more than 25 µg/ml.

[2] = biological target: penicillinase (β-lactamase) from Bacillus SP; assay: β-lactamase inhibitory activity by microiodometry, penicillin G as substrate; type: biochemical; conditions: read-out: 50% Inhibitory Concentration
Method: The inhibitory activity against penicillinase (β-lactamase) from Bacillus SP was measured by . microiodometry [Tanpakushitsu Kakusan Koso (Protein Nucleic Acid Enzyme), vol. 23, No. 5, pp 391-400 (1978)] using a penicillin G as a substrate.

[3] = biological target: penicillinase (β-lactamase) from Bacillus SP; assay: β-lactamase inhibitory activity by pH stat method, penicillin G as substrate; type: biochemical; conditions: read-out: 50% β-lactamase inhibitory concentration
[4] = Table 2, read-out: MIC, Ampicillin (singly used)
[5] = Table 3, inoculate 10^7 CFU/ml, singly used, read-out: MIC, Ampicillin
[6] = concentration inhibiting growth of 70% of 30 strains
[7] = Table 3, inoculate 10^7 CFU/ml, singly used, read-out: MIC, Comp. 26

CC1(C)S[C@@H]2[C@H](NC(=O)[C@H](N)c3ccccc3)C(=O)N2[C@H]1C(=O)O [Ampicillin, ampicillin]
MIC (E.coli TH—397): 400 µg/mL (≈ 1140 µM) | MIC (S.aureus ATCC 90124; [4]): 25 µg/mL (≈ 71.5 µM) | MIC (S.aureus ATCC 90124; [5]): 50 µg/mL (≈ 143 µM) | MIC (E.coli TH—34; read-out: MIC, Ampicillin): 800 µg/mL (≈ 2290 µM) | MIC (E.coli TH—13; [4]): 400 µg/mL (≈ 1140 µM) | MIC (E.coli TH—13; [5]): 400 µg/mL (≈ 1140 µM) | MIC (S.aureus S—54; 20 h, Table 3, inoculate 10^7 CFU/ml, singly used, read-out: MIC, Ampicillin): 100 µg/mL (≈ 286 µM) | MIC (S.aureus S—54; Table 2, 37°C, 20 hours, read-out: MIC, Ampicillin (singly used)): 25 µg/mL (≈ 71.5 µM) | MIC (S.marcescens TH—05; [4]): > 400 µg/mL | MIC (S.marcescens TH—05; [5]): 800 µg/mL (≈ 2290 µM) | MIC (P.mirabilis 121—1; read-out: MIC, Ampicillin): 800 µg/mL (≈ 2290 µM) | MIC (P.vulgaris IID OX—19; [4]): 100 µg/mL (≈ 286 µM) | MIC (P.vulgaris IID OX—19; [5]): 25 µg/mL (≈ 71.5 µM) | MIC (P.Mirabilis 121): > 400 µg/mL | MIC50 ([1]; read-out: MIC50, Ampicillin singly used): 400 µg/mL | MIC70, Ampicillin singly used [1, 6]: >400 µg/mL

CC1=C(C(=O)O)N2C(=O)[C@@H](NC(=O)[C@H](N)c3ccccc3)[C@H]2SC1 [Cephalexin, cephalexin, reference compound]
MIC50 ([1]; read-out: MIC50, Cephalexin singly used): 25 µg/mL | MIC70, Cephalexin singly used [1, 6]: 100 µg/mL

CCOC(=O)c1cn(C[C@@]2(C)[C@H](C(=O)O)N3C(=O)C[C@H]3S2(=O)=O)nn1 [Compound 7, sodium 2β-(4-ethoxycarbonyl-1,2,3-triazole-1-yl)methyl-2α-methylpenam-3α-caboxylate-1,1-dioxide]
pIC50 [2]: 7.27 | MIC70, Present compound as combined with ampicillin [1]: 50 µg/mL | MIC70, Present compound as combined with cephalexin [1]: 100 µg/mL | MIC70, Present compound as combined with mecillinam [1]: 0.39 µg/mL | MIC70, Present compound as combined with piperacillin [1]: 6.25 µg/mL

CCOC(=O)c1cnnn1C[C@@]1(C)[C@H](C(=O)O)N2C(=O)C[C@H]2S1(=O)=O [Compound 11, sodium 2β-(5-ethoxycarbonyl-1,2,3-triazole-1-yl)methyl-2α-methylpenam-3α-carboxylate-1,1-dioxide]
pIC50 [2]: 6.47 | MIC70, Present compound as combined with ampicillin [1]: 100 µg/mL | MIC70, Present compound as combined with cephalexin [1]: 100 µg/mL | MIC70, Present compound as combined with mecillinam [1]: 0.39 µg/mL | MIC70, Present compound as combined with piperacillin [1]: 25 µg/mL

COC(=O)c1cn(C[C@@]2(C)[C@H](C(=O)O)N3C(=O)C[C@H]3S2(=O)=O)nn1 [Compound 12, sodium 2β-(4-methoxycarbonyl-1,2,3-triazole-1-yl)methyl-2a-methylpenam-3α-carboxylate-1,1-dioxide]
pIC50 [2]: 7.31

COC(=O)c1cnnn1C[C@@]1(C)[C@H](C(=O)O)N2C(=O)C[C@H]2S1(=O)=O [Compound 13, sodium 2β-(5-methoxycarbonyl-1,2,3-triazote-1-yl)methyl-2α-methylpenam-3α-carboxylate-1,1-dioxide]
pIC50 [2]: 6.52

C[C@]1(Cn2cc(C(=O)O)nn2)[C@H](C(=O)O)N2C(=O)C[C@H]2S1(=O)=O [Compound 16, dipotassium 2β-(4-carboxy-1,2,3-triazole-1-yl)methyl-2α-methylpenam-3α-carboxylate-1,1-dioxide]
pIC50 [2]: 6.22 | MIC70, Present compound as combined with ampicillin [1]: 6.25 µg/mL | MIC70, Present compound as combined with cephalexin [1]: 25 µg/mL | MIC70, Present compound as combined with mecillinam [1]: 0.1 µg/mL | MIC70, Present compound as combined with piperacillin [1]: 3.13 µg/mL

C[C@]1(Cn2nncc2C(=O)O)[C@H](C(=O)O)N2C(=O)C[C@H]2S1(=O)=O [Compound 17, dipotassium 2β-(5-carboxy-1,2,3-triazole-1-yl)methyl-2α-methylpenam-3α-carboxylate-1,1-dioxide]
pIC50 [2]: 5.77 | MIC70, Present compound as combined with ampicillin [1]: 100 µg/mL | MIC70, Present compound as combined with cephalexin [1]: 12.5 µg/mL | MIC70, Present compound as combined with mecillinam [1]: 0.39 µg/mL | MIC70, Present compound as combined with piperacillin [1]: 50 µg/mL

C[C@]1(Cn2ccnn2)[C@H](C(=O)O)N2C(=O)C[C@H]2S1(=O)=O [Compound 22, sodium 2α-methyl-2β-(1,2,3-triazole-1-yl)-methylpenam-3α-carboxylate-1,1-dioxide]
pIC50 [2]: 6.16 | MIC70, Present compound as combined with ampicillin [1]: 6.25 µg/mL | MIC70, Present compound as combined with cephalexin [1]: 50 µg/mL | MIC70, Present compound as combined with mecillinam [1]: 0.2 µg/mL | MIC70, Present compound as combined with piperacillin [1]: 1.56 µg/mL

C[C@]1(Cn2cc([Si](C)(C)C)nn2)[C@H](C(=O)O)N2C(=O)C[C@H]2S1(=O)=O [Compound 24, sodium 2α-methyl-2β-(4-trimethylsilyl-1,2,3-triazole-1-yl)-methylpenam-3α-carboxylate-1,1-dioxide]
pIC50 [2]: 6.29

COC(=O)c1nnn(C[C@@]2(C)[C@H](C(=O)O)N3C(=O)C[C@H]3S2(=O)=O)c1C(=O)OC [Compound 26, sodium 2β-(4,5-dimethoxycarbonyl-1,2,3-triazole-1-yl)-methyl-2α-methylpenam-3α-carboxylate-1,1-dioxide]
pIC50 [3]: 6.52 | MIC (S.aureus ATCC 90124; [7]): > 50 µg/mL | MIC (E.coli TH—34; read-out: MIC, Comp. 26): > 50 µg/mL | MIC (E.coli TH—13; [7]): > 50 µg/mL | MIC (S.aureus S—54; 20 h, Table 3, inoculate 10^7 CFU/ml, singly used, read-out: MIC, Comp. 26): > 50 µg/mL | MIC (S.marcescens TH—05; [7]): > 50 µg/mL | MIC (P.mirabilis 121—1; read-out: MIC, Comp. 26): > 50 µg/mL | MIC (P.vulgaris IID OX—19; [7]): 25 µg/mL

C[C@]1(Cn2nnc(C(=O)O)c2C(=O)O)[C@H](C(=O)O)N2C(=O)C[C@H]2S1(=O)=O [Compound 39, tri-sodium 2β-(4,5-dicarboxy-1,2,3-triazole-1-yl)methyl-2α-methylpenam-3α-carboxylate-1,1-dioxide]
pIC50 [2]: 5.64

CC1(C)S[C@@H]2[C@H](/N=C/N3CCCCCC3)C(=O)N2[C@H]1C(=O)O [Mecillinam, mecillinam, reference compound]
MIC50 ([1]; read-out: MIC50, Mecillinam singly used): 3.13 µg/mL | MIC70, Mecillinam singly used [1, 6]: 12.5 µg/mL

CCN1CCN(C(=O)N[C@@H](C(=O)N[C@@H]2C(=O)N3[C@@H]2SC(C)(C)[C@@H]3C(=O)O)c2ccccc2)C(=O)C1=O [Piperacillin, piperacillin, reference compound]
MIC50 ([1]; read-out: MIC50, Piperacillin singly used): 50 µg/mL | MIC70, Piperacillin singly used [1, 6]: 200 µg/mL
